Test results: ChEMBL document CHEMBL1201862, “PubChem BioAssay data set” (2004)
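Protocol summary: plate cells (96-well), add compound at 5 concentrations, incubate 48 h, interpolate endpoints linearly. GI50 is the concentration that inhibits growth by half.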 Activity calls are given as the source filed them. Rule as the data show it: active = GI50 up to about 1.1 µM and inactive = higher.

Tests used:
Assay in all cases: DTP human tumour cell line panel, 48 h
ACHN = test system: ACHN
CCRF-CEM = test system: CCRF-CEM
IGROV-1 = test system: IGROV-1
HT-29 = test system: HT-29
SW-620 = test system: SW-620
HCT-116 = test system: HCT-116
SR = test system: SR
NCI-H460 = test system: NCI-H460
U-251 = test system: U-251
KM12 = test system: KM12
RXF 393 = test system: RXF 393
PC-3 = test system: PC-3
RPMI-8226 = test system: RPMI-8226
SK-MEL-5 = test system: SK-MEL-5
BT-549 = test system: BT-549
HOP-62 = test system: HOP-62
TK-10 = test system: TK-10

Measured: GI50

CC(C)=NNc1cnnc2ccc([N+](=O)[O-])cc12
inactive: ACHN 23.9 µM | CCRF-CEM 32.9 µM | IGROV-1 21.4 µM | HT-29 > 100 µM | SW-620 > 100 µM | HCT-116 59.6 µM | SR 30.3 µM | NCI-H460 33.3 µM | U-251 > 100 µM | KM12 > 100 µM | RXF 393 > 100 µM | PC-3 > 100 µM | RPMI-8226 31.6 µM | SK-MEL-5 55.3 µM | BT-549 > 100 µM

CC(C)OC(=O)c1ccc(NCC2=CC(=O)C=CC2=O)cc1Cl
inactive: ACHN 4.36 µM | IGROV-1 11.5 µM | HT-29 16.3 µM | SW-620 11.5 µM | HCT-116 19.3 µM | SR 1.58 µM | NCI-H460 19.2 µM | U-251 16.9 µM | KM12 13.5 µM | RXF 393 17.1 µM | PC-3 8.3 µM | HOP-62 32.5 µM | TK-10 15.7 µM | SK-MEL-5 18.7 µM | BT-549 2.62 µM
active: CCRF-CEM 0.448 µM

CNC1C(O)C(OC2C(N)CC(N)C(OC3OC(C(C)O)C(O)C(O)C3N)C2O)OCC1(C)O (configuration not stated)
inactive: ACHN > 100 µM | CCRF-CEM > 100 µM | IGROV-1 > 100 µM | HT-29 > 100 µM | SW-620 > 100 µM | HCT-116 > 100 µM | SR > 100 µM | NCI-H460 > 100 µM | U-251 > 100 µM | KM12 > 100 µM | PC-3 > 100 µM | HOP-62 > 100 µM | TK-10 > 100 µM | RPMI-8226 > 100 µM | SK-MEL-5 > 100 µM | BT-549 > 100 µM

N#CC(C#N)=C/C=C(\Sc1c(Cl)c(Cl)nc(Cl)c1Cl)c1ccc(Cl)cc1
inactive: ACHN 16.8 µM | CCRF-CEM 4.74 µM | IGROV-1 18.7 µM | HT-29 18 µM | SW-620 5.77 µM | HCT-116 10.2 µM | SR 3.75 µM | NCI-H460 26.4 µM | U-251 16.8 µM | KM12 19.1 µM | RXF 393 18.5 µM | PC-3 30 µM | HOP-62 29.2 µM | TK-10 21.2 µM | RPMI-8226 4.1 µM | SK-MEL-5 13 µM

CCc1n[nH]c(=O)n1/N=C(\C)c1ccc([N+](=O)[O-])cc1
inactive: CCRF-CEM > 100 µM | IGROV-1 82.6 µM | HT-29 36.6 µM | SW-620 94.2 µM | HCT-116 > 100 µM | NCI-H460 46.2 µM | U-251 > 100 µM | KM12 > 100 µM | RXF 393 78.5 µM | PC-3 > 100 µM | HOP-62 > 100 µM | TK-10 > 100 µM | RPMI-8226 > 100 µM | SK-MEL-5 > 100 µM | BT-549 > 100 µM

COc1ccc(C2NC3=C(CCCC3)C3(C#N)C(=O)N=C(N)C23C#N)cc1 (configuration not stated)
inactive: ACHN > 100 µM | CCRF-CEM 23 µM | IGROV-1 > 100 µM | HT-29 > 100 µM | SW-620 > 100 µM | HCT-116 > 100 µM | NCI-H460 > 100 µM | U-251 > 100 µM | KM12 > 100 µM | RXF 393 > 100 µM | PC-3 > 100 µM | HOP-62 > 100 µM | TK-10 > 100 µM | RPMI-8226 > 100 µM | SK-MEL-5 > 100 µM | BT-549 > 100 µM

O=C(O)COc1c(Cl)cc(Cl)c(C(c2c(Cl)cc(Cl)c(OCC(=O)O)c2Cl)C(Cl)(Cl)Cl)c1Cl
active: HOP-62 0.398 µM
inactive: ACHN 33.7 µM | IGROV-1 32.8 µM | HT-29 29 µM | SW-620 29.8 µM | HCT-116 28.2 µM | NCI-H460 31.6 µM | U-251 26.7 µM | KM12 40.1 µM | RXF 393 30.9 µM | PC-3 38 µM | TK-10 31.9 µM | RPMI-8226 28.3 µM | SK-MEL-5 18.5 µM | BT-549 23.1 µM

O=C1NN(Cc2ccccc2)C(=O)N2CCC[C@@H]12
inactive: ACHN > 100 µM | CCRF-CEM > 100 µM | IGROV-1 > 100 µM | HT-29 > 100 µM | SW-620 > 100 µM | HCT-116 > 100 µM | NCI-H460 > 100 µM | KM12 > 100 µM | RXF 393 > 100 µM | PC-3 > 100 µM | HOP-62 > 100 µM | TK-10 > 100 µM | SK-MEL-5 > 100 µM

Sc1nnc(Cc2ccc(Cl)cc2)[nH]1
inactive: ACHN 45.3 µM | CCRF-CEM 63.1 µM | IGROV-1 44.5 µM | HT-29 > 100 µM | SW-620 85.5 µM | HCT-116 51.4 µM | SR 58.6 µM | NCI-H460 50.8 µM | U-251 58.1 µM | KM12 43.2 µM | PC-3 49.1 µM | HOP-62 93.1 µM | TK-10 66.2 µM | SK-MEL-5 39.6 µM | BT-549 > 100 µM

CC(=O)O[C@H]1CC[C@@]2(C)C(=CC[C@@H]3[C@@H]2CC[C@]2(C)C(=N/O)/C(=C/c4ccc([N+](=O)[O-])cc4)C[C@@H]32)C1
inactive: ACHN 6.22 µM | CCRF-CEM 3.76 µM | IGROV-1 12.8 µM | HT-29 5.43 µM | SW-620 6.24 µM | HCT-116 3.97 µM | NCI-H460 > 100 µM | KM12 5.22 µM | RXF 393 32.4 µM | PC-3 2.72 µM | HOP-62 17.3 µM | TK-10 8.43 µM | SK-MEL-5 1.69 µM | BT-549 2.25 µM
active: RPMI-8226 1.06 µM

O=C(/C=C/c1cccc([N+](=O)[O-])c1)N1CCN(CCOC(c2ccccc2)c2ccccc2)CC1
inactive: ACHN 34.5 µM | CCRF-CEM 28.4 µM | IGROV-1 42.6 µM | HT-29 19.2 µM | SW-620 38.9 µM | HCT-116 18.6 µM | SR 16.1 µM | NCI-H460 25.9 µM | KM12 26.9 µM | RXF 393 34.4 µM | HOP-62 > 100 µM | TK-10 22.7 µM | RPMI-8226 12.3 µM | SK-MEL-5 14.9 µM | BT-549 27.4 µM

CCOC(=O)N1c2c(c3ccccc3n2C(=O)OCC)C(=O)C(OC)N1C(=O)OCC (configuration not stated)
inactive: ACHN 25.6 µM | CCRF-CEM 19.5 µM | IGROV-1 26.5 µM | HT-29 30.5 µM | SW-620 31.7 µM | HCT-116 26.5 µM | SR 16.9 µM | NCI-H460 36.1 µM | U-251 27.1 µM | KM12 17.9 µM | PC-3 21.6 µM | HOP-62 22 µM | TK-10 50.5 µM | RPMI-8226 23.9 µM | SK-MEL-5 21.8 µM | BT-549 60.7 µM

Cc1cc(C2CC(O)C(CO)O2)c(F)cc1F (configuration not stated)
inactive: ACHN > 100 µM | CCRF-CEM > 100 µM | IGROV-1 > 100 µM | HT-29 > 100 µM | SW-620 > 100 µM | HCT-116 > 100 µM | SR > 100 µM | NCI-H460 > 100 µM | U-251 > 100 µM | KM12 > 100 µM | RXF 393 > 100 µM | PC-3 > 100 µM | HOP-62 > 100 µM | TK-10 > 100 µM | BT-549 > 100 µM

Cc1nc(N)c(N2CCN(S(=O)(=O)N(Cc3ccccc3)Cc3ccccc3)CC2)c(O)n1
inactive: ACHN 18.2 µM | CCRF-CEM > 100 µM | HT-29 26.8 µM | SW-620 69.7 µM | HCT-116 28.1 µM | SR > 100 µM | NCI-H460 40.6 µM | U-251 16.9 µM | KM12 56.9 µM | PC-3 20.4 µM | HOP-62 31.6 µM | TK-10 26.5 µM | RPMI-8226 > 100 µM | BT-549 48.9 µM

O=C1CNc2cc(N3CCN(c4cccc(C(F)(F)F)c4)CC3)ccc2N1
inactive: ACHN 50.6 µM | CCRF-CEM 38.4 µM | IGROV-1 30.8 µM | HT-29 70.6 µM | SW-620 51.2 µM | HCT-116 35.7 µM | SR 46.3 µM | NCI-H460 53 µM | U-251 31 µM | KM12 32.9 µM | PC-3 44.4 µM | HOP-62 > 100 µM | TK-10 69.2 µM | RPMI-8226 31.7 µM | SK-MEL-5 18.9 µM | BT-549 42.8 µM

COc1ccc(CC2C3=C(CCCC3)CCN2C)cc1 (configuration not stated)
inactive: ACHN > 100 µM | CCRF-CEM > 100 µM | IGROV-1 > 100 µM | HT-29 65.8 µM | SW-620 > 100 µM | HCT-116 58.2 µM | NCI-H460 > 100 µM | U-251 > 100 µM | KM12 > 100 µM | RXF 393 > 100 µM | PC-3 > 100 µM | HOP-62 > 100 µM | TK-10 > 100 µM | RPMI-8226 > 100 µM | SK-MEL-5 > 100 µM

CCOC(=O)c1cnc2oc3ccc(O)cc3c2c1C
inactive: ACHN > 100 µM | CCRF-CEM 32.7 µM | HT-29 > 100 µM | SW-620 > 100 µM | HCT-116 > 100 µM | SR 74 µM | NCI-H460 > 100 µM | U-251 > 100 µM | RXF 393 > 100 µM | PC-3 > 100 µM | TK-10 57.4 µM | RPMI-8226 > 100 µM | SK-MEL-5 69.3 µM

CNc1nc2c(C)ccc3nc(N(C)C)nc-3c2n1C
inactive: ACHN > 10 µM | CCRF-CEM > 10 µM | IGROV-1 > 10 µM | HT-29 > 10 µM | SW-620 > 10 µM | HCT-116 > 10 µM | NCI-H460 > 10 µM | U-251 > 10 µM | KM12 > 10 µM | RXF 393 > 10 µM | PC-3 > 10 µM | HOP-62 > 10 µM | TK-10 > 10 µM | RPMI-8226 > 10 µM | SK-MEL-5 > 10 µM | BT-549 > 10 µM
